In PubChem BioAssay (NCI):
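The compound was tested at five concentrations on cells cultured in 96-well plates, with a 48-hour exposure period. GI50 marks 50% less growth. TGI is the concentration that stops growth completely.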

What was measured:
Assay in all cases: NCI anticancer screen, dose series, 48 h
786-0 renal = tested on: 786-0 renal
MOLT-4 leukemia = tested on: MOLT-4 leukemia
SK-MEL-5 melanoma = tested on: SK-MEL-5 melanoma
M14 melanoma = tested on: M14 melanoma
SF-295 CNS = tested on: SF-295 CNS
HT29 colon = tested on: HT29 colon
EKVX NSCLC = tested on: EKVX NSCLC
CAKI-1 renal = tested on: CAKI-1 renal
RPMI-8226 leukemia = tested on: RPMI-8226 leukemia
OVCAR-5 ovarian = tested on: OVCAR-5 ovarian

Compound: CCOc1ccc(N=Cc2cccc3cccnc23)cc1
- TGI (786-0 renal): > 100 µM
- TGI (MOLT-4 leukemia): > 100 µM
- TGI (SK-MEL-5 melanoma): > 100 µM
- TGI (M14 melanoma): > 100 µM
- TGI (SF-295 CNS): > 100 µM
- TGI (HT29 colon): > 100 µM
- TGI (EKVX NSCLC): > 100 µM
- TGI (CAKI-1 renal): > 100 µM
- TGI (RPMI-8226 leukemia): > 100 µM
- TGI (OVCAR-5 ovarian): > 100 µM

Compound: [N-]=[N+]=NC(c1cn(C2CC(O)C(CO)O2)c(=O)[nH]c1=O)C(Br)I (centres undefined)
- TGI (786-0 renal): > 100 µM
- TGI (MOLT-4 leukemia): > 100 µM
- TGI (SK-MEL-5 melanoma): > 100 µM
- TGI (M14 melanoma): > 100 µM
- TGI (SF-295 CNS): > 100 µM
- TGI (HT29 colon): > 100 µM
- TGI (EKVX NSCLC): > 100 µM
- TGI (CAKI-1 renal): > 100 µM
- TGI (RPMI-8226 leukemia): > 100 µM
- TGI (OVCAR-5 ovarian): > 100 µM

Compound: Nc1ccccc1C#C/C=C\C#Cc1ccccc1C(F)(F)F
- GI50 (786-0 renal): 0.545 µM
- TGI (786-0 renal): 16.7 µM
- GI50 (MOLT-4 leukemia): > 61.3 µM
- TGI (MOLT-4 leukemia): > 100 µM
- GI50 (SK-MEL-5 melanoma): 0.841 µM
- TGI (SK-MEL-5 melanoma): 6.3 µM
- GI50 (M14 melanoma): 0.422 µM
- TGI (M14 melanoma): 9.74 µM
- GI50 (SF-295 CNS): 0.958 µM
- TGI (SF-295 CNS): 3.62 µM
- GI50 (HT29 colon): 3.58 µM
- TGI (HT29 colon): > 100 µM
- GI50 (EKVX NSCLC): 0.895 µM
- TGI (EKVX NSCLC): 15.2 µM
- GI50 (CAKI-1 renal): 1.1 µM
- TGI (CAKI-1 renal): 10.1 µM
- GI50 (RPMI-8226 leukemia): 1.46 µM
- TGI (RPMI-8226 leukemia): > 51 µM
- GI50 (OVCAR-5 ovarian): 1.15 µM
- TGI (OVCAR-5 ovarian): 10.8 µM

Compound: O=C1C(Cl)C(c2cccc(O)c2)N1n1cnc2ccccc2c1=O (centres undefined)
- TGI (786-0 renal): > 100 µM
- TGI (MOLT-4 leukemia): > 100 µM
- TGI (SK-MEL-5 melanoma): > 100 µM
- TGI (M14 melanoma): > 100 µM
- TGI (SF-295 CNS): > 100 µM
- TGI (HT29 colon): > 100 µM
- TGI (EKVX NSCLC): > 100 µM
- TGI (CAKI-1 renal): > 100 µM
- TGI (RPMI-8226 leukemia): > 100 µM
- TGI (OVCAR-5 ovarian): > 100 µM

Compound: CCCCCCCCCC(=O)CC(=O)c1ccc(O)cc1O
- TGI (786-0 renal): > 100 µM
- TGI (MOLT-4 leukemia): 49.7 µM
- TGI (SK-MEL-5 melanoma): 31.5 µM
- TGI (M14 melanoma): 54.7 µM
- TGI (SF-295 CNS): 70.1 µM
- TGI (HT29 colon): > 100 µM
- TGI (EKVX NSCLC): 73 µM
- TGI (CAKI-1 renal): 85.9 µM
- TGI (RPMI-8226 leukemia): 59.6 µM
- TGI (OVCAR-5 ovarian): 94 µM

Compound: CC1=C([Se]CC(OC(=O)CC[Se]c2ccccc2)C(=O)NCCCCCC(=O)OCc2ccccc2)C(=O)c2ccccc2C1=O (centres undefined)
- GI50 (786-0 renal): 3.18 µM
- TGI (786-0 renal): 8.36 µM
- GI50 (MOLT-4 leukemia): 3.61 µM
- TGI (MOLT-4 leukemia): 31.2 µM
- GI50 (SK-MEL-5 melanoma): 1.54 µM
- TGI (SK-MEL-5 melanoma): 3.06 µM
- GI50 (M14 melanoma): 2.04 µM
- TGI (M14 melanoma): 4.8 µM
- GI50 (SF-295 CNS): 1.97 µM
- TGI (SF-295 CNS): 8.46 µM
- GI50 (HT29 colon): 3.65 µM
- TGI (HT29 colon): 12.1 µM
- GI50 (EKVX NSCLC): 2.96 µM
- TGI (EKVX NSCLC): 29.2 µM
- GI50 (CAKI-1 renal): 2.57 µM
- TGI (CAKI-1 renal): 7.72 µM
- GI50 (RPMI-8226 leukemia): 3.18 µM
- TGI (RPMI-8226 leukemia): 12.9 µM
- GI50 (OVCAR-5 ovarian): 5.39 µM
- TGI (OVCAR-5 ovarian): 20.1 µM

Compound: CC(C)N(C(=O)C12C3C4C5(C#N)C3C1(I)C5C42I)C(C)C (centres undefined)
- TGI (786-0 renal): > 64.7 µM
- TGI (MOLT-4 leukemia): > 100 µM
- TGI (SK-MEL-5 melanoma): > 100 µM
- TGI (M14 melanoma): > 100 µM
- TGI (SF-295 CNS): > 100 µM
- TGI (HT29 colon): > 100 µM
- TGI (EKVX NSCLC): > 100 µM
- TGI (CAKI-1 renal): > 100 µM
- TGI (RPMI-8226 leukemia): > 67.2 µM
- TGI (OVCAR-5 ovarian): > 100 µM

Compound: COC(=O)C1CC(C(=O)OC)c2nc3cc(C)ccc3nc21 (centres undefined)
- TGI (786-0 renal): > 100 µM
- TGI (MOLT-4 leukemia): > 100 µM
- TGI (SK-MEL-5 melanoma): > 100 µM
- TGI (M14 melanoma): > 100 µM
- TGI (SF-295 CNS): > 100 µM
- TGI (HT29 colon): > 100 µM
- TGI (EKVX NSCLC): > 100 µM
- TGI (CAKI-1 renal): > 100 µM
- TGI (RPMI-8226 leukemia): > 100 µM
- TGI (OVCAR-5 ovarian): > 100 µM

Compound: COc1cc2oc(=O)ccc2cc1C1OC(=O)C2OC21C (centres undefined)
- TGI (786-0 renal): > 100 µM
- TGI (MOLT-4 leukemia): > 100 µM
- TGI (SK-MEL-5 melanoma): > 100 µM
- TGI (M14 melanoma): > 100 µM
- TGI (SF-295 CNS): > 100 µM
- TGI (HT29 colon): > 100 µM
- TGI (EKVX NSCLC): > 100 µM
- TGI (CAKI-1 renal): > 100 µM
- TGI (RPMI-8226 leukemia): > 100 µM
- TGI (OVCAR-5 ovarian): > 100 µM

Compound: OCc1cn(Cc2cccc(Cl)c2)c2ccccc12
- GI50 (786-0 renal): 5.15 µM
- TGI (786-0 renal): 28.1 µM
- GI50 (MOLT-4 leukemia): 10.6 µM
- TGI (MOLT-4 leukemia): 44.4 µM
- GI50 (SK-MEL-5 melanoma): 11 µM
- TGI (SK-MEL-5 melanoma): 23.7 µM
- GI50 (M14 melanoma): 11.3 µM
- TGI (M14 melanoma): 29.6 µM
- GI50 (SF-295 CNS): 0.145 µM
- TGI (SF-295 CNS): 14.5 µM
- GI50 (HT29 colon): 1.83 µM
- TGI (HT29 colon): 34.3 µM
- GI50 (EKVX NSCLC): 17.3 µM
- TGI (EKVX NSCLC): 56.1 µM
- TGI (CAKI-1 renal): 1.87 µM
- GI50 (RPMI-8226 leukemia): 0.632 µM
- TGI (RPMI-8226 leukemia): 20 µM
- GI50 (OVCAR-5 ovarian): 2.63 µM
- TGI (OVCAR-5 ovarian): 8.89 µM

Compound: OC1(C(O)(c2ccc(-c3ccccc3)cc2)c2ccc(-c3ccccc3)cc2)CCCCC1
- TGI (786-0 renal): > 100 µM
- TGI (MOLT-4 leukemia): > 100 µM
- TGI (SK-MEL-5 melanoma): > 100 µM
- TGI (M14 melanoma): > 100 µM
- TGI (SF-295 CNS): > 100 µM
- TGI (HT29 colon): > 100 µM
- TGI (EKVX NSCLC): > 100 µM
- TGI (CAKI-1 renal): > 100 µM
- TGI (RPMI-8226 leukemia): > 100 µM
- TGI (OVCAR-5 ovarian): > 100 µM

Compound: CC(C)(C)N1CCC1C(N)=O (centres undefined)
- GI50 (786-0 renal): > 100 µM
- TGI (786-0 renal): > 100 µM
- GI50 (MOLT-4 leukemia): > 100 µM
- TGI (MOLT-4 leukemia): > 100 µM
- GI50 (SK-MEL-5 melanoma): > 100 µM
- TGI (SK-MEL-5 melanoma): > 100 µM
- GI50 (M14 melanoma): > 100 µM
- TGI (M14 melanoma): > 100 µM
- GI50 (SF-295 CNS): > 100 µM
- TGI (SF-295 CNS): > 100 µM
- GI50 (HT29 colon): > 100 µM
- TGI (HT29 colon): > 100 µM
- GI50 (EKVX NSCLC): > 100 µM
- TGI (EKVX NSCLC): > 100 µM
- GI50 (CAKI-1 renal): > 100 µM
- TGI (CAKI-1 renal): > 100 µM
- GI50 (RPMI-8226 leukemia): > 100 µM
- TGI (RPMI-8226 leukemia): > 100 µM
- GI50 (OVCAR-5 ovarian): > 100 µM
- TGI (OVCAR-5 ovarian): > 100 µM
